Tested on: SKOV3 carboplatin-resistant cancers
Experiment: SKOV3CRLuc subcutaneous xenograft
Type: in vivo, athymic nu/nu mice
Conditions: platinum-resistant mouse tumor model
Protocol: [MUT] and SKOV3CRLuc cells were injected subcutaneously into the athymic nu/nu mice (3×10^6, n=8 for each group). Parental SKOV3Luc cells were used as a negative control. Mice were intraperitoneally (i.p.) injected with [MUT] (red, 2.5 mg/kg/injection) or DMSO (red arrows) using a 3 days-on 4-days off protocol. Carboplatin (30 mg/kg/injection) was administrated i.p. every other day (green arrows). (B) Tumor volume was measured every other day for 25 to 40 days using a caliper, and luminescence activity was evaluated weekly. (C) Endpoint tumor volumes of [MUT], SKOV3Luc, and SKOV3CRLuc xenografts treated with the indicated drug or drug combination. Student's t-test. (D) Representative bioluminescence images of tumor burden in SKOV3CRLuc-innoculated mice treated with indicated drug. Images captured by the IVIS Spectrum at day 35. […] In vivo bioluminescence images were taken at the same time using the IVIS Spectrum. […] We tested the anti-tumor potency of [MUT]

## N.N.O=C([O-])C1(C(=O)[O-])CCC1.[Pt+2] [carboplatin]
  anti-tumor potency (tumor growth): relatively ineffective
